Test results as given in patent US20090017042A1, “PROCESS FOR THE DETERMINATION OF THE PRIMARY STRUCTURE OF THE MESSENGER RNA CODING FOR THE HUMAN RECOMBINANT ENDOOLIGOPEPTIDASE A (HEOPA) [AF217798]” (priority 2002, published 2009).
Several values for one entry are separate records, joined by “and”; a condition that tells them apart may be missing. Equal entries are not always repeated.

Columns and labels:
[1] = target: T1, rEOPA (recombinant endooligopeptidase A) (Homo sapiens, UniProt Q9GZM8); conditions: state of the art; cited from earlier work
T1 construct: poly-histidine tag or anchor protein (e.g. GST) (N, cleaved yes); made in house; host or cells: Escherichia coli (DH5alpha, BL21(DE3) or similar), vector e.g. pProEx-HTc
T1 sequence (Q9GZM8 1-345): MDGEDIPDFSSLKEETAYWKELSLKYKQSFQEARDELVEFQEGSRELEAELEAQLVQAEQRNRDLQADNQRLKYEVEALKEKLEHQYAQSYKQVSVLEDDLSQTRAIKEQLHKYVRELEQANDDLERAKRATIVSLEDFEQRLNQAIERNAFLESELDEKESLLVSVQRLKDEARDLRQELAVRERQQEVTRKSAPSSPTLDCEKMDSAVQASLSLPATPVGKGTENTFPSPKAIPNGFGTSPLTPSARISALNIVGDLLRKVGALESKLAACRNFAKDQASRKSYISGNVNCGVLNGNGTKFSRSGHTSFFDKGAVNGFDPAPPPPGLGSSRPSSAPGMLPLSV

[2] = target: T1, rEOPA (recombinant endooligopeptidase A); test: Inhibition of the catalytic activity of recombinant EOPA (kinetic assay, quenched fluorescence peptide substrate or HPLC); format: biochemical; conditions: for Ki: rEOPA
Description: Polyclonal antibodies were generated in rats, mice and rabbits, using the purified natural EOPA or the active recombinant EOPA, expressed in bacteria, specifically in Escherichia coli, for the immunization. Male Balb-C mice, 7 to 8 weeks old, and weighing between 18 and 22 g were immunized with purified natural human EOPA, or catalytically active recombinant enzyme. For each of the four immunizations, 2.mμ.g of the purified protein or 3.mμ.g of the recombinant protein, absorbed on aluminum hydroxide [Al(OH)3] were injected intradermically, in weekly intervals. Blood samples were collected one week after the last immunization, and the serum was stored at −20° C. The antiserum titer was evaluated by ELISA, using the appropriate antigen. The anti-catalytic activity of the obtained antiserum was evaluated by HPLC or fluorimetrically, using the quenched fluorescent peptides substrates. Before use, the antiserum was pre-heated at 55° C., for 5 minutes, in order to eliminate any contaminating peptidase activity. […] Using this antibody, it was possible to discriminate the activity of the EOPA from functionally similar, but not homologous enzymes, such as the TOP and the NL, which are also present in animal tissues and cells lineages.
Kinetic assays using natural peptide substrates like bradykinin, neurotensin and opioid peptides, composed by 9 to 13 amino acid residues, were essential for the discovery and characterization of the EOPA in our laboratory (see the summary of this literature in Camargo et al., 1994). Since 1990, we have developed peptide substrates derived from natural substrates with quenched fluorescence, standardizing the characterization of this enzyme, simplifying and reducing the costs, and making the characterization of the kinetic properties of the EOPA more reliable (Juliano et al., 1990). The peptide substrates with quenched fluorescence (qf) used have the radical Abz (ortho-aminobenzoic acid) at the amino terminus of the peptide, and the EDDnp [N-(2,4-dinitrophenyl)ethylenediamine] at the carboxyl terminus of the peptide. […]

neurolysin (NL) = neurolysin (NL) (Homo sapiens, UniProt Q9BYT8); test: Inhibition of neurolysin; format: biochemical
neurolysin (NL), sequence (Q9BYT8 38-704): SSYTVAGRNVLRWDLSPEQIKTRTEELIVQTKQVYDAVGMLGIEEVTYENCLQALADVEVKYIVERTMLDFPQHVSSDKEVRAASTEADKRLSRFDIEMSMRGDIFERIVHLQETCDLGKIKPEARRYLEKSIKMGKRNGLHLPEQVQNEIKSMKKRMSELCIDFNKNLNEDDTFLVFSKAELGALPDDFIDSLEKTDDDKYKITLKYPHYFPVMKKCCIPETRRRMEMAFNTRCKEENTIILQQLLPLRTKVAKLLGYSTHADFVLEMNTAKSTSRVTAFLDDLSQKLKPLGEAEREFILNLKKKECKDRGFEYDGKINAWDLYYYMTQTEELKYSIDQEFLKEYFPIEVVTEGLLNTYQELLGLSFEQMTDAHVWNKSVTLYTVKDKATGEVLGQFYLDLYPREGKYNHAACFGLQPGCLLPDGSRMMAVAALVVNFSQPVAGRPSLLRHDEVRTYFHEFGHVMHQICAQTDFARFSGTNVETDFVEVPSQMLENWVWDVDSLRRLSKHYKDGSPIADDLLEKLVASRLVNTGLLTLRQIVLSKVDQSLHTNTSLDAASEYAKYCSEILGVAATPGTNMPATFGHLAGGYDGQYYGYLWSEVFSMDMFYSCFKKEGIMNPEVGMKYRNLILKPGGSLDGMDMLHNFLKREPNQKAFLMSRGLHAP

[3] = test system: neuronal precursor cells from embryonic stem cells (USP-1 lineage); test: Treatment of neuronal precursor cells differentiated from embryonic stem cells with EOPA inhibitor; format: cell-based; conditions: neuronal precursor cells treated with the inhibitor
Procedure: The undifferentiated embryonic stem cells (USP-1 lineage) were cultured in medium containing: DMEM, supplemented with 15% of bovine fetal serum, […] of penicillin/streptomycin and 2 mM of L-glutamine, 1% of non-essential amino acids, 10^−4 M of monothioglicerol, and LIF (Leukemia Inhibitory Factor), in a final concentration of 1,000 units/ml. All the undifferentiated stem cells culture was maintained over a primary culture of previously irradiated murine fibroblasts (Neo Mef2). The differentiation was done after the formation of the embryoid bodies, where 750 cells were maintained in 20 μl of the culture medium drops over a Petri dish, during four days at 37° C., under 5% carbonic gas (during this period the cells form the cellular aggregates known as embryoid bodies). […] After completing the differentiation of the stem cells, the differentiated cells were counted and photographed using a confocal microscopy. A population of cells differentiated into neurons was obtained following the protocol described above, and the influence of the inhibition of the EOPA catalytic activity during the differentiation and maturation process of these neurons was analyzed after the treatment of these cells with the inhibitor JA2.

[4] = target: thimet oligopeptidase (TOP) (Homo sapiens, UniProt P52888); conditions: cited from earlier work
thimet oligopeptidase (TOP), sequence (P52888 whole entry, species assumed): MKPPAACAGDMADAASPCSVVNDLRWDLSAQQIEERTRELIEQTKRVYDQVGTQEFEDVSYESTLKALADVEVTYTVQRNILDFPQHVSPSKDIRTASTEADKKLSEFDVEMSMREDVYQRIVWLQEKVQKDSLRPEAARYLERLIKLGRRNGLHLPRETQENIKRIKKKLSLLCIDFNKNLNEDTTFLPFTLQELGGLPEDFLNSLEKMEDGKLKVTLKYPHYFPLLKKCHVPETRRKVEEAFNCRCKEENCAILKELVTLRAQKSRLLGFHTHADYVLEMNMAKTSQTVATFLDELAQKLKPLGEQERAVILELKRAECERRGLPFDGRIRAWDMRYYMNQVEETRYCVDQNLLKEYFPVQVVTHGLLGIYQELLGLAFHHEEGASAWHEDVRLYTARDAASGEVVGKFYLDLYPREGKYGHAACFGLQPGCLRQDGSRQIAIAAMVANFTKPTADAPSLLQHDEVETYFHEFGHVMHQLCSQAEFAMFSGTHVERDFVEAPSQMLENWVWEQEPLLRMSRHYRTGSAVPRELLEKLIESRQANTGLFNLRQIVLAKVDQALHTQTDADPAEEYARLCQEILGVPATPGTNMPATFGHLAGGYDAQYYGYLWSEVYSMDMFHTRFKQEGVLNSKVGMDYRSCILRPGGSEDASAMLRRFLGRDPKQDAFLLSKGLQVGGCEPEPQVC

Compound	effect of thiol agents on EOPA activity (kinetic assays) [1]	Ki [2]	other results
O[C@H](CS)[C@H](O)CS (racemic) [dithiothreitol (DTT), dithiothreitol]	activated		
O=C(O)c1cc[c]([Hg][Cl])cc1 [p-chloromercuribenzoate (PCMB), p-chloromercuribenzoate]	inhibited		
O=C(O)c1cc(SSc2ccc([N+](=O)[O-])c(C(=O)O)c2)ccc1[N+](=O)[O-] [5′-dithio-bis-(2-nitrobenzoic acid)]	inhibited		
O=C(O)CN(CCN(CC(=O)O)CC(=O)O)CC(=O)O [EDTA]			sensitivity of EOPA to metalloprotease-directed agents [2]: insensible
C[C@H](NC(CCc1ccccc1)C(=O)O)C(=O)NC(C)(C)C(=O)N[C@@H](Cc1ccc(O)cc1)C(=O)Nc1ccc(C(=O)O)cc1 (stereo partly shown) [JA2]		~17 nM and 17 nM	Ki (neurolysin (NL)): > 200 nM; differentiation of the cells [3]: abnormal differentiation of the cells; neurites formation [3]: inhibition of the neurites formation; Ki [4]: 23 nM
C[C@H](NC(=O)[C@H](C)NC(CCc1ccccc1)C(=O)O)C(=O)N[C@@H](Cc1ccc(O)cc1)C(=O)Nc1ccc(C(=O)O)cc1 (stereo partly shown) [cFP]		~17 nM	
